Drawing on ChEMBL document CHEMBL5365443, “Synthesis and biological evaluation of simplified ajudazol derivatives reveal potent 5-lipoxygenase inhibition and considerable apoptotic activity in neuroblastoma cells” (Bioorg Med Chem Lett, 2023), this text covers Activity, IC50 and half-life for five compounds.

In data set [1] the test system is B104. Description: Upregulation of NADH mRNA expression in rat B104 cells. The class given is functional, cell-based.
The test system of data set [2] is B104. Description: Upregulation of ICDH mRNA expression in rat B104 cells. The class given is functional, cell-based.
Data set [3] concerns B104. Nature of the data set: Upregulation of […] mRNA expression in rat B104 cells. The class given is functional, cell-based.
Data set [4] relates to B104. Description: Upregulation of LDH mRNA expression in rat B104 cells. The class given is functional, cell-based.
The test system of data set [5] is B104. Description: Effect on NADH:UQ oxidoreductase expression in rat B104 cells. The class given is functional, cell-based.
A further data set relates to 1321N1. Nature of the data set: Antiproliferative activity against human 1321N1 cells assessed as inhibition of cell growth by MTT assay. The class given is functional, cell-based. (Tetrazolium assays rely on reduction of a dye to a coloured formazan, in cell work by metabolically active cells.)
The target in data set [6] is T1, Polyunsaturated fatty acid 5-lipoxygenase (Homo sapiens, UniProt P09917).
T1 sequence (P09917 whole entry): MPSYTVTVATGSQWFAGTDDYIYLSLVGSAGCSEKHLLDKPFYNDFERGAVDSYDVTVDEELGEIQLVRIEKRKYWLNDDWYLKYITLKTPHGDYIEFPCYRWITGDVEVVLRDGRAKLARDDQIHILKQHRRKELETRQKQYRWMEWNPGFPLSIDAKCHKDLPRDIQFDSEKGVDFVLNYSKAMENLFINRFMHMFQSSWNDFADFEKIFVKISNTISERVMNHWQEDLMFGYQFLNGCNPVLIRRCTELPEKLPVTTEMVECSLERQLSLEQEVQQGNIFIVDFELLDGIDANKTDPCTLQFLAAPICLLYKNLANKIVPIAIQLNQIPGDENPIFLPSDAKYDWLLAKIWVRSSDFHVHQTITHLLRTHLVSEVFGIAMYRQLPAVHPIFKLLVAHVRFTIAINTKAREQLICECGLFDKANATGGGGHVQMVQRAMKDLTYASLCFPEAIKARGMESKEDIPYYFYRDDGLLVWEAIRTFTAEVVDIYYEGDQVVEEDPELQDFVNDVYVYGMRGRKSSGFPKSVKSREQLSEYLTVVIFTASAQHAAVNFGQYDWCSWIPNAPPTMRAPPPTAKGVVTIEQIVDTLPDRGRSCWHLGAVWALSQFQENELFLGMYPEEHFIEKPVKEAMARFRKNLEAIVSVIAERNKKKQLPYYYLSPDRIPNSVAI
Description: Inhibition of 5-LO (unknown origin).

Data set [7] deals with T1, Polyunsaturated fatty acid 5-lipoxygenase. Nature of the data set: Inhibition of 5-LO in human neutrophils. The class given is cell-based, Neutrophil.
In the next data set the target is T2, Prostaglandin E synthase (Homo sapiens, UniProt O14684).
T2 sequence (O14684 whole entry): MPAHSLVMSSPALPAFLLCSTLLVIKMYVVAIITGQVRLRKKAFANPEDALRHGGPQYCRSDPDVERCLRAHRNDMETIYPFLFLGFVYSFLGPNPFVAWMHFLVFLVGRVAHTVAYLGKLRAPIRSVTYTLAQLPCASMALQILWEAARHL
Description: Inhibition of mPGES-1 (unknown origin).

For data set [8], the system named is B104. Nature of the data set: Antiproliferative activity against rat B104 cells assessed as reduction in cell growth at 10 to 1000 nM. The class given is functional, cell-based. To be noted: dose 10-1000 nM.
A further data set has as its system SH-SY5Y. Nature of the data set: Antiproliferative activity against human SH-SY5Y cells assessed as reduction in cell growth at 10 to 1000 nM. The class given is functional, cell-based. To be noted: dose 10-1000 nM.
The test system of data set [9] is B104. Description: Induction of apoptosis in rat B104 cells assessed as DNA fragmentation at 10 uM by DNA laddering assay. The class given is functional, cell-based.
In data set [10] the test system is B104. Nature of the data set: Induction of apoptosis in rat B104 cells assessed as DNA fragmentation at 100 uM by DNA laddering assay. The class given is functional, cell-based.
The test system of data set [11] is B104. Nature of the data set: Antiproliferative activity against rat B104 cells assessed as reduction in cell growth by MTT assay. The class given is functional, cell-based.
The nature of data set [12]: Drug degradation in methanol assessed as half life. The class given is ADME.
In data set [13] the test system is B104. Description: Upregulation of ICDH level in rat B104 cells at 10 nM. The class given is functional, cell-based.
Data set [14] relates to B104. Description: Upregulation of OGDH level in rat B104 cells at 10 nM. The class given is functional, cell-based.
In data set [15] the test system is B104. Nature of the data set: Upregulation of LDH level in rat B104 cells at 10 nM. The class given is functional, cell-based.

Each structure is given as a SMILES string. pIC50: −log10 of the molar value. Calls of active or inactive are those of the source. The rule behind the calls is not given here.

In the case of `C=C(I)CCO[Si](CC)(CC)CC`, the result in the data set on B104 [1], with B104 [2], with B104 [3] and in the data set with B104 [5] was Active. In the data set with B104 [4], the outcome was inactive.

The term pIC50 denotes the negative decadic logarithm of the IC50, by convention in mol/L. For `C=C(C/C=C\C=C/CC/C=C/CN(C)C(=O)/C=C(\C)OC)c1ncco1`, the negative-log IC50 (pIC50) in the data set with 1321N1 was 5.37; in data set [6], 4.61; in [7] it was under 4.52; against Prostaglandin E synthase, under 4.52.

As to `CO/C(C)=C/C(=O)N(C)C/C=C/CC/C=C\C=C/C[C@@H](C)c1nc(C[C@@H](C)[C@H]2OC(=O)c3c(ccc(C)c3O)[C@@H]2O)co1`, the pIC50 in [6] is 5.16; in data set [7], 5.80.

For orientation: half-life means the time in which the quantity being followed falls by half. Take `C=C(C/C=C\C=C/CC/C=C/CN(C)C(=O)/C=C(\C)OC)c1nc(C[C@@H](C)[C@H]2OC(=O)c3c(ccc(C)c3O)[C@@H]2O)co1`: the negative logarithm of the IC50 (pIC50) in the data set with 1321N1 was 5.03; in data set [6], 5.96; in data set [7] it was 5.60; at Prostaglandin E synthase, 5.49. The outcome with B104 [8], in the data set on SH-SY5Y, in the data set with B104 [9] and with B104 [11] was Active. In addition, in the data set on B104 [10], the outcome was inactive. Moreover, the half-life in data set [12] was about 168 h.

As to `C=C(C/C=C\C=C/CC/C=C/CN(C)C(=O)/C=C(\C)OC)c1nc(C[C@H](C)[C@@H]2CC[C@@H](C)C[C@H]2O)co1`, the negative logarithm of the IC50 (pIC50) in the data set on 1321N1 was 5.48; in data set [6], 6.00; in data set [7], 5.28; against Prostaglandin E synthase it was 4.73. In addition, the outcome in the data set with B104 [13], in the data set with B104 [8], with SH-SY5Y, in the data set with B104 [9], with B104 [14] and with B104 [11] was Active. For the same compound, the outcome with B104 [10] and in the data set with B104 [15] was inactive.
